# What was measured:
# CD3+ T cells = assay: T cell transfection in vitro with varied LNP components, mOX40L mRNA; type: cell-based, human; conditions: as ionizable lipid or PEG lipid component, Table 23
# Protocol: In this example, human peripheral blood mononuclear cells (PBMCs) from two different Donors (Donor 1 and Donor 2) were incubated in the presence of mRNA encoding mouse OX40L (mOX40L) (20 ng or 50 ng) encapsulated in each of the three different LNP compositions tested in Example 3. PBS was used as a negative control. Human PBMCs were incubated ex vivo with the various LNPs at 37° C. After 24 hours, cells were analyzed by flow cytometry for mOX40L protein expression in CD3+ T cells.
# In this Example, LNPs were made with various lipid components and at different ratios and were tested for their ability to transfect T cells in vitro. Transfection was performed as in Example 5 using LNPs encapsulating an mRNA encoding mouse OX40L.
# In a first set of experiments, phytosterol was used as the immune cell delivery potentiating lipid and other lipid constituents of the LNP were varied.
# T cells [1] = assay: LNP association and GFP mRNA expression in T cells of human PBMCs; type: cell-based; conditions: PEG lipid component of the LNP, FIG. 33
# Protocol: In a second series of experiments, additional compounds, were tested in the LNPs for their ability to enhance delivery to T cells. For these experiments, the association of the LNP with cells and the expression of mRNA-encoding protein within the transfected cells was assessed at the cell-by-cell level. Peripheral blood mononuclear cells (PBMCs) from human donors were used. PBMCs were predominately T cells (40-60%), B cells (3-15%), and monocytes (15-35%), but also contained small numbers of other cell types. LNPs were incubated with serum or PBS for 30 minutes and then added to the PBMCs. The LNP concentration was 0.050 mg/ml, the LNP volume was 0.1 ml.
# LNPs contained 0.1% Rhodamine-DOPE in addition to the other LNP components to facilitate detection. Thus, the ratios set forth in the tables below include 0.1 for the rhodamine label. For example, 50:10:10:27.9:2:0.1 AL:DSPC:chol:sterol:Cmp 428 indicates 50% amino lipid as the ionizable lipid, 10% DSPC as the phospholipid, 10% cholesterol, 27.9% phytosterol, 2% Compound 428 as the PEG lipid and 0.1% for the rhodamine-DOPE label. To prepare a non-labeled LNP, the same ratios are used except that the 0.1% rhodamine label is omitted and an additional 0.1% of structural lipid (cholesterol or cholesterol/phytosterol blend) is used (e.g., 27.9% becomes 28%).
# Cells were sorted by flow cytometry into subsets based on expression of certain markers: CD3 (T cells), CD20 (B cells), and CD3-, CD20-, CD14+(Monocytes).
# mRNA encoding GFP was used as a model agent to effect expression of an intracellular protein.
# When conducting flow cytometry, the Y-axis was signal from the rhodamine tag on the LNP and the X-axis was the GFP signal showing expression of the protein.
# The “associated” population is any rhodamine+ and/or GFP+ cell and the percent of these cells was calculated by dividing by the total number of cells. The “expression” population is any GFP+ cell and the percent of these cells was calculated by dividing by the total number of cells. The percent of associated cells expressing was obtained by dividing the % expressing cells by the % associated cells.
# monocytes = assay: Sterol panel in LNPs, delivery in vivo (FIG. 40); conditions: Cmpd X/sterol/Cmpd 428 LNPs, Y-axis percentage of CD3+ cells in spleen expressing mOX40L
# Protocol: In a second series of experiments, an additional panel of sterol compounds was tested in LNPs for monocyte delivery in vivo. The results for this panel of sterols tested for the structural lipid component of the LNP are shown in the bar graph of FIG. 40. […] The bars/lanes on the X-axis labeled 1-9 correspond to the following LNP compositions tested for mRNA delivery in vivo: Lane 1 is PBS. Lane 2 is Cmpd X/Cmpd 428, Lane 3 is Cmpd X/β sitosterol/Cmpd 428, Lane 4 is Cmpd X/β-sitosterol-d7/Cmpd 428, Lane 5 is Cmpd X/brassicasterol/Cmpd 428, Lane 6 is Cmpd X/unnamed sterol/Cmpd 428, Lane 7 is Cmpd X/Cmpd S-30/Cmpd 428, Lane S is Cmpd X/Cnpd S-32/Cmpd 428, Lane 9 is Cmpd X/Cmpd S-31/Cmpd 428.
# T cells [2] = assay: LNP association and GFP mRNA expression in T cells of human PBMCs; type: cell-based; conditions: third series, in vitro, FIG. 35
SMILES,delivery to T cells with phytosterol-containing LNP (CD3+ T cells),"immune cell delivery potentiating ability in T cells, PEG lipid panel (T cells [1])","immune cell delivery potentiating ability in monocytes, additional sterol panel in vivo (monocytes)","immune cell delivery potentiating ability in T cells, additional sterol panel (T cells [2])"
CCCCCCCCCCCCCCCCCC(=O)OCCOCCOCCOCCOCCOCCOCCOCCOCCOCCOCCOCCOCCOCCOCCOCCOCCOCCOCCOCCOCCOCCOCCOCCOCCOCCOCCOCCOCCOCCOCCOCCOCCOCCOCCOCCOCCOCCOCCOCCOCCOCCOCCOCCOCCO [Compound 428],enhanced delivery to T cells,exhibited immune cell delivery potentiating ability in T cells,–,–
CC(C)[C@@H](C)/C=C/[C@@H](C)[C@H]1CC[C@H]2[C@@H]3CC=C4C[C@@H](O)CC[C@]4(C)[C@H]3CC[C@]12C [brassicasterol],–,–,exhibited immune cell delivery potentiating ability in monocytes,exhibited immune cell delivery potentiating ability in T cells

# Reference: US20230027864A1, “COMPOSITIONS AND METHODS FOR DELIVERY OF AGENTS TO IMMUNE CELLS” (ModernaTX, Inc., priority 2018, published 2023)
